Test results published in patent publication US20070185128A1, “Compounds and compositions for treating obesity” (priority 2002, published 2007).

System: schedule fed male SPRD rat
Assay: Assay (I): efficacy on appetite, schedule-fed rat model, food intake (diet consumed)
Assay type: in vivo
Settings: for Diet Consumed 1 hr (mean X of 8 rats): 1 hr after dosing; for Diet Consumed 2 hr (mean X of 8 rats): cumulative at 2 hr after dosing; for Diet Consumed 3 hr (mean X of 8 rats): cumulative at 3 hr after dosing
Procedure: FIG. 1: Effect on food intake in schedule fed (8 h-13 h) male SPRD rat model as described in assay 1. The rats are dosed ip at 08.00 h with vehicle, sibutramine (3 mg/kg) and (S,S)-6-(4-amino-butyl)-1-biphenyl-4-ylmethyl-3-naphthalen-2-ylmethyl-piperazine-2,5-dione (example 11) (1, 3 or 10 mg/kg). Rat chow and water is available from just post dosing, and food intake is measured every hour from dosing to 3 hours post dosing.
The bars indicate the cumulated food intake over time.
Assay (I) Experimental Protocol for Efficacy Testing on Appetite with MC4 Analogues, Using a Schedule—Fed Rat Model.
TAC:SPRD @mol rats or Wistar rats from M&B Breeding and Research Centre A/S, Denmark are used for the experiments. The rats have a bodyweight 200-250 g at the start of experiment. The rats arrive at least 10-14 days before start of experiment with a bodyweight of 180-200 g. Each dose of compound is tested in a group of 8 rats. A vehicle group of 8 rats is included in each set of testing.
When the animals arrive they are housed individually. After a habituating period of 4-7 days with free access to food and water, the schedule feeding is initiated. The rats are allowed to eat from 08 am to 01 pm each day. In the remaining period only access to water is allowed. They are kept on this feeding schedule for 8 days before start of experiment. In this period the animals are handled and dosed in the relevant way (ip, po, sc.) with saline at least 3 times. The experiment is conducted in the rat home cages. Immediately before dosing the rats are randomised to the different treatment groups (n=8) by bodyweight. They are dosed according to bodyweight at 08 am, with a 1 ml/kg solution either, ip, po or sc. The dosing time is recorded for each group. Following dosing the rats are returned to their home cages, where they now have access to food and water. The food consumption is recorded individually, each hour for 3 hours. At the end of the experimental session, the animals are euthanised.
The individual data are recorded in Microsoft excel sheets. Outliers are excluded after using the Grubbs statistical evaluation test for outliers and the result presented graphically by using the GraphPad Prism program.

Row | SMILES | Diet Consumed 1 hr (mean X of 8 rats) (3 mg/kg i.p.) [Grams] | Diet Consumed 2 hr (mean X of 8 rats) (3 mg/kg i.p.) [Grams] | Diet Consumed 3 hr (mean X of 8 rats) (3 mg/kg i.p.) [Grams] | Diet Consumed 1 hr (mean X of 8 rats) (1 mg/kg i.p.) [Grams] | Diet Consumed 2 hr (mean X of 8 rats) (1 mg/kg i.p.) [Grams] | Diet Consumed 3 hr (mean X of 8 rats) (1 mg/kg i.p.) [Grams] | Diet Consumed 1 hr (mean X of 8 rats) (10 mg/kg i.p.) [Grams] | Diet Consumed 2 hr (mean X of 8 rats) (10 mg/kg i.p.) [Grams] | Diet Consumed 3 hr (mean X of 8 rats) (10 mg/kg i.p.) [Grams]
1 | CC(C)CC(N(C)C)C1(c2ccc(Cl)cc2)CCC1 (stereo not drawn) [Sibutramine, reference compound] | 3.5 | 7.0 | 9.4 | – | – | – | – | – | –
2 | NCCCC[C@H]1C(=O)N[C@@H](Cc2ccc3ccccc3c2)C(=O)N1Cc1ccc(-c2ccccc2)cc1 [Example 23, (S,S)-6-(4-Amino-butyl)-1-biphenyl-4-ylmethyl-3-naphthalen-2-ylmethyl-piperazine-2,5-dione] | 3.4 | 7.1 | 8.5 | 2.4 | 6.3 | 8.4 | 2.7 | 5.4 | 6.3
